Source: the supplement of paper PMC11208160

Assay: recombinant UMI read abundance after kanamycin selection (control-corrected) (log10(CPM+1)); higher = more efficient recombination; extreme values may be limits of the assay; sequences stand for … in AGTGCAGAGAAAATCGGCCAGTTTTCTCTGCCTGCAGTCCGCATGCCGTGGGACCCCTTGGGTTCTAACCTGTTGCCTAGATTTATGCAGCGGACTGCCTTTCTCCCAAAGTGATAAACCGG…AGGTTGGTTTCACT; site = the 11-nt donor
How it was run: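 In Escherichia coli, a pool of donor and donor-binding-loop pairs, each with a 12-nt UMI, was tested for the IS621 bridge recombinase. Plating was on IPTG (0.07 mM) plus kanamycin, or without selection, in two replicates. Recombinant UMIs were amplified by PCR across the donor–target junction and sequenced, and counts were reported as log10(CPM+1) after averaging and control-derived scaling.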
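Further: IS621 bridge recombinase in Escherichia coli cells against a fixed T5 target plasmid.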

Sequence	recombinant UMI read abundance (log10)
TAGCGAGCATGGACCGGTTTTCCCGGTAATCCGTATTTGAA (site TAGCGAGCTTT)	1.41
TAGCGAGCATGGACCGGTTTTCCCGGTAATCCGTATTTGAA (site TAGCTAGCTTT)	0.00707
TAGCGAGCATGGACCGGTTTTCCCGGTAATCCGTATTTGTA (site TAGCGAGCTTA)	1.82
TAGCGGCCATGGACCGGTTTTCCCGGTAATCCGTATTTGAA (site TAGCGGCCTTT)	0.205
TAGCGTACATGGACCGGTTTTCCCGGTAATCCGTATTTGTA (site TAGCGTACTTA)	1.2
TAGCTAACATGGACCGGTTTTCCCGGTAATCCGTATTTGAA (site TAGCTAACTTT)	1.09
TAGCTAACATGGACCGGTTTTCCCGGTAATCCGTATTTGAA (site TAGCTACCTTT)	0.00585
TAGCTAACATGGACCGGTTTTCCCGGTAATCCGTATTTGAA (site TAGCTAGCTTT)	0.00737
TAGCTAACATGGACCGGTTTTCCCGGTAATCCGTATTTGAA (site TAGCTATCTTT)	0.429
TAGCTACCATGGACCGGTTTTCCCGGTAATCCGTATTTGAA (site TAGCTAACTTT)	0.00682
TAGCTACCATGGACCGGTTTTCCCGGTAATCCGTATTTGAA (site TAGCTACCTTT)	0.00616
TAGCTACCATGGACCGGTTTTCCCGGTAATCCGTATTTGAA (site TAGCTAGCTTT)	0.00385
TAGCTACCATGGACCGGTTTTCCCGGTAATCCGTATTTGAA (site TAGCTATCTTT)	0.784
TAGCTATCATGGACCGGTTTTCCCGGTAATCCGTATTTGAA (site TAGCTAACTTT)	0.00325
TAGCTATCATGGACCGGTTTTCCCGGTAATCCGTATTTGAA (site TAGCTACCTTT)	0.0124
TAGCTATCATGGACCGGTTTTCCCGGTAATCCGTATTTGAA (site TAGCTAGCTTT)	0.00959
TAGCTATCATGGACCGGTTTTCCCGGTAATCCGTATTTGAA (site TAGCTATCTTT)	2.02
TAGCTCACATGGACCGGTTTTCCCGGTAATCCGTATTTGAT (site AAGCTCACTAT)	0.00391
TAGCTCACATGGACCGGTTTTCCCGGTAATCCGTATTTGAT (site CAGCTCACTAT)	0.61
TAGCTCACATGGACCGGTTTTCCCGGTAATCCGTATTTGAT (site GAGCTCACTAT)	0.0104
TAGCTCACATGGACCGGTTTTCCCGGTAATCCGTATTTGAT (site TAGCTCACTAT)	1.47
TAGGAATCATGGACCGGTTTTCCCGGTAATCCGTATTTGGG (site TAGGAATCTCA)	0.407
TAGGAATCATGGACCGGTTTTCCCGGTAATCCGTATTTGGG (site TAGGAATCTCC)	1.79
TAGGAATCATGGACCGGTTTTCCCGGTAATCCGTATTTGGG (site TAGGAATCTCG)	0
TAGGAATCATGGACCGGTTTTCCCGGTAATCCGTATTTGGG (site TAGGAATCTCT)	0.56

Sequence	recombinant UMI read abundance (log10)
TAGGATACATGGACCGGTTTTCCCGGTAATCCGTATTTGCA (site TAGAATACTTG)	1.71
TAGGATACATGGACCGGTTTTCCCGGTAATCCGTATTTGCA (site TAGCATACTTG)	0.852
TAGGATACATGGACCGGTTTTCCCGGTAATCCGTATTTGCA (site TAGGATACTTG)	3.06
TAGGATACATGGACCGGTTTTCCCGGTAATCCGTATTTGCA (site TAGTATACTTG)	1.44
TAGGATTCATGGACCGGTTTTCCCGGTAATCCGTATTTGCG (site TAGGAATCTCG)	1.73
TAGGATTCATGGACCGGTTTTCCCGGTAATCCGTATTTGCG (site TAGGACTCTCG)	1.68
TAGGATTCATGGACCGGTTTTCCCGGTAATCCGTATTTGCG (site TAGGAGTCTCG)	0.435
TAGGATTCATGGACCGGTTTTCCCGGTAATCCGTATTTGCG (site TAGGATTCTCG)	2.94
TAGGCAACATGGACCGGTTTTCCCGGTAATCCGTATTTGCA (site TAGGCAACTTG)	0.0204
TAGGCATCATGGACCGGTTTTCCCGGTAATCCGTATTTGCG (site TAGGAATCTCG)	0
TAGGCATCATGGACCGGTTTTCCCGGTAATCCGTATTTGCG (site TAGGCATCTCG)	1.31
TAGGCATCATGGACCGGTTTTCCCGGTAATCCGTATTTGCG (site TAGGGATCTCG)	0.00568
TAGGCATCATGGACCGGTTTTCCCGGTAATCCGTATTTGCG (site TAGGTATCTCG)	0.449
TAGGGGACATGGACCGGTTTTCCCGGTAATCCGTATTTGAA (site TAGGGGACTTT)	1.24
TAGGTAGCATGGACCGGTTTTCCCGGTAATCCGTATTTGAA (site TAGATAGCTTT)	0.894
TAGGTAGCATGGACCGGTTTTCCCGGTAATCCGTATTTGAA (site TAGCTAGCTTT)	0.00863
TAGGTAGCATGGACCGGTTTTCCCGGTAATCCGTATTTGAA (site TAGGTAGCTTT)	1.67
TAGGTAGCATGGACCGGTTTTCCCGGTAATCCGTATTTGAA (site TAGTTAGCTTT)	0.0108
TAGGTATCATGGACCGGTTTTCCCGGTAATCCGTATTTGCG (site TAGGAATCTCG)	1.02
TAGGTATCATGGACCGGTTTTCCCGGTAATCCGTATTTGCG (site TAGGCATCTCG)	1.3
TAGGTATCATGGACCGGTTTTCCCGGTAATCCGTATTTGCG (site TAGGGATCTCG)	1.7
TAGGTATCATGGACCGGTTTTCCCGGTAATCCGTATTTGCG (site TAGGTATCTCG)	2.92
TAGGTTGCATGGACCGGTTTTCCCGGTAATCCGTATTTGGC (site TAGGTTGCTGC)	2.62
TAGTACTCATGGACCGGTTTTCCCGGTAATCCGTATTTGCT (site TAGTACTCTAG)	2.94
TAGTAGTCATGGACCGGTTTTCCCGGTAATCCGTATTTGGG (site TAGTAGTCTCC)	0.369

Sequence	recombinant UMI read abundance (log10)
TAGTCGACATGGACCGGTTTTCCCGGTAATCCGTATTTGGG (site AAGTCGACTCC)	0.0151
TAGTCGACATGGACCGGTTTTCCCGGTAATCCGTATTTGGG (site CAGTCGACTCC)	0.0191
TAGTCGACATGGACCGGTTTTCCCGGTAATCCGTATTTGGG (site GAGTCGACTCC)	0.0292
TAGTCGACATGGACCGGTTTTCCCGGTAATCCGTATTTGGG (site TAGTCGACTCC)	0.0301
TAGTCGGCATGGACCGGTTTTCCCGGTAATCCGTATTTGAT (site TAGTCGGCTAT)	0.387
TAGTTAGCATGGACCGGTTTTCCCGGTAATCCGTATTTGAA (site TAGATAGCTTT)	0.0157
TAGTTAGCATGGACCGGTTTTCCCGGTAATCCGTATTTGAA (site TAGCTAGCTTT)	0.407
TAGTTAGCATGGACCGGTTTTCCCGGTAATCCGTATTTGAA (site TAGGTAGCTTT)	0.00722
TAGTTAGCATGGACCGGTTTTCCCGGTAATCCGTATTTGAA (site TAGTTAGCTTT)	1.33
TATAACTCATGGACCGGTTTTCCCGGTAATCCGTATTTGGC (site TATAACTCTGC)	1.35
TATACACCATGGACCGGTTTTCCCGGTAATCCGTATTTGAC (site TATACACCTGT)	0
TATACACCATGGACCGGTTTTCCCGGTAATCCGTATTTGAC (site TCTACACCTGT)	0.0077
TATACACCATGGACCGGTTTTCCCGGTAATCCGTATTTGAC (site TGTACACCTGT)	0
TATACACCATGGACCGGTTTTCCCGGTAATCCGTATTTGAC (site TTTACACCTGT)	0
TATATCTCATGGACCGGTTTTCCCGGTAATCCGTATTTGAA (site TATATCTCTTT)	0.835
TATATCTCATGGACCGGTTTTCCCGGTAATCCGTATTTGTA (site TATATCTCTTA)	1.93
TATCCTCCATGGACCGGTTTTCCCGGTAATCCGTATTTGTT (site TATCCTCCTAA)	0.0195
TATCCTTCATGGACCGGTTTTCCCGGTAATCCGTATTTGGT (site TAACCTTCTAC)	0.00593
TATCCTTCATGGACCGGTTTTCCCGGTAATCCGTATTTGGT (site TACCCTTCTAC)	0.0066
TATCCTTCATGGACCGGTTTTCCCGGTAATCCGTATTTGGT (site TAGCCTTCTAC)	0.0208
TATCCTTCATGGACCGGTTTTCCCGGTAATCCGTATTTGGT (site TATCCTTCTAC)	0.31
TATCGATCATGGACCGGTTTTCCCGGTAATCCGTATTTGAC (site TATCGATCTGT)	1.86
TATCTAGCATGGACCGGTTTTCCCGGTAATCCGTATTTGAA (site TAACTAGCTTT)	0.0105
TATCTAGCATGGACCGGTTTTCCCGGTAATCCGTATTTGAA (site TACCTAGCTTT)	0.131
TATCTAGCATGGACCGGTTTTCCCGGTAATCCGTATTTGAA (site TAGCTAGCTTT)	0.00935
